# Reference: patent publication US5681823A, “P^1, P^4 -dithio-P^2 -P^3 -monochloromethylene 5', 5'"-diadenosine P^1, P^4 -tetraphosphate as antithrombotic agent” (PRP Inc., priority 1996, dated 1997)
# “Also recorded” adds a separate entry of the source. Read-outs that look alike come from different tables or passages of the source.
# Experiments:
# [1] = Molecular stability in whole blood (HPLC of blood extracts); assay type: in vitro ADME, human; conditions: for Main Peak / Total / X1 (second peak) / X2 (second peak): 250 μM agent, mean of two
# Procedure: To test the molecular stability of the agents, blood was incubated with each agent at […] for 4 hours. Samplings at the indicated incubation times were extracted and CHC -AP4 A or thio-CHCl-AP4 A were assayed in an HPLC (Waters 600E pump and controller) with quartenary amine anion exchange column (Whatman Partisil 10) and analysed (Beckman System Gold). The retention times for CHCl-AP4 A and thio-CHCl-AP4 A were 3.39 and 5.95, respectively. Peak areas were integrated and used to construct a standard curve for a concentration range (1, 2, 4, 6, 8 and 10 μM). Both CHCl-AP4 A and thio-CHCl-AP4 A were pure, as observed by a single peak on HPLC, and by a linear relationship between the concentration of the agent and HPLC peak areas. Normal human blood anticoagulated with 0.38% sodium citrate was incubated in the presence of250 μM CHCl-AP4 A or thio-CHCl-AP4 A at […] for 4 hours. Blood samples were extracted with 3% perchloric acid and neutralized with K2 CO3. The extracts were kept at -80° C. until an assay using an HPLC. The values in Table 9 represent a mean of two experiments and are expressed in nmol/ml blood. […] An estimated quantity of CHCl-AP4 A major peak indicated a slow degradation showing a reduction of 30% after 4 hours incubation. At least 80% of degradation product, possibly chloromethylene monoadenosine triphosphate (AppCp) is associated with the second peak (X1). […] The second peak of the blood extract with thio-CHCl-AP4 A may be an isomer (X2), e.g., monothio compound (Aps pCppA or AppCpps A). It was not detected by HPLC of the pure compound, but registered a small portion (<10%) in the blood extraction at time 0 and about 20% of the major peak thereafter.
# [2] = tested on: ADP-induced platelet aggregation; assay: ADP-induced platelet aggregation in platelet-rich plasma (turbidimetric method of Born, aggregometer); assay type: cell-based, human; conditions: for IC50: ADP-induced aggregation, PRP, mean of three (*) or two determinations
# Procedure: (§1) Unless otherwise provided below, the experimental procedures were performed according to the procedures provided in U.S. Pat. No. 5,049.550 (Zamecnik '550), the entire contents of which are incorporated herein by reference. Some alternative procedures (e.g., release reaction, PF3 assays) and a number of additional studies also are provided (e.g., cytoplasmic calcium mobilization, fibrinogen binding site, agonists other than ADP, platelet cAMP and distribution of CHCl-AP4 A into blood components). Blood was collected in a 0.1 volume of 3.8% sodium citrate from healthy human volunteers who had abstained from antiplatelet agents for at least 10 days. Platelet rich plasma (PRP) was separated by a gradual centrifugation and adjusted to 3.3×10^8 platelets per ml plasma. PRP has been utilized in the Examples unless otherwise stated.
# An initial screening was performed for inhibitory effects of several agents (including, e.g., thio-CHCl-AP4 A and CHCl-AP4 A as reference agent)) on platelet aggregation induced by ADP. Platelet aggregation was measured with platelet-rich plasma (PKP) by the turbidimetric method of Born (J. Physiol. 162:67, 1962) in an aggregometer (Chrono-log, Model 530 VS). Platelet aggregation induced by 5 μM ADP in the absence or presence of 5 μM agents was examined. […] The IC50 value of the CHCl-AP4 A (reference agent) was consistent with the value reported previously (P. Zamecnik et al., Proc. Nat'l. Acad. Sci. USA 89:2370-2373 (1992)).
# [3] = tested on: Cytoplasmic Calcium Ion (Ca^++) Mobilization in platelets; assay: Cytoplasmic calcium ion mobilization in platelets (Indo-1, flow cytometer); assay type: cell-based, human; conditions: 6.7 μM ADP
# Procedure: as §1
# An increment of cytoplasmic Ca^++ in the platelets represents an activated state. Indo-1 acetomethyl ester (Indo-1) commonly has been utilized as the reagent to detect intracellular free Ca^++. Indo-1 reacts with Ca^++ and produces fluorescence which can be monitored in a dual wavelength (408/485) flow cytometer (Coulter EPIC Systems). Platelets were incubated with Indo-1 at 37° C. for 45 min. Excess Indo-1 in the medium was removed by gel-filtration method. Indo-1-loaded platelets were then activated by 6.7 μM ADP in the absence or presence of thio-CHCl-AP4 A (3.3 μM) or CHCl-AP4 A (6.7 μM). Fluorescence intensity of the platelets was monitored and plotted against platelet number. The histograms generated from the plots were analyzed. Unstimulated platelets registered fluorescence intensity (FI) between 42 and 250 with a peak at 133 (base line control).
# Platelet Factor 3 (PF3) = assay: Platelet factor 3 (PF3) activation, Stypven clotting time; assay type: cell-based, human; conditions: for Clotting Time (Stypven), ADP-stimulated PF3 activity / Net Change of clotting time / activity at 10 µM: 10 μM agent, 10 μM ADP; for Clotting Time (Stypven), ADP-stimulated PF3 activity: mean of two, baseline 45.8, saline control 38.9; for Net Change of clotting time: saline control -6.9; for activity at 10 µM: Homo sapiens, Platelet, 5 min, saline control 100, read-out: % Change of clotting time
# Procedure: PF3 activity of the platelets is enhanced by ADP stimulation and measured by the Stypven clotting time (P. Zamecnik et al., PNAS (USA) 89:2370-2373 (1992)). The data represent a mean of two experiments. Fresh normal human platelet-rich plasma (3×10^8 platelets per ml) was preincubated in the presence or absence of the agents (10 μM) at 37° C. for 5 min and then tested for PF3 activity of the platelets that was stimulated by 10 μM ADP.
# [4] = tested on: ADP-induced platelet aggregability; assay: Ability to aggregate of platelets exposed previously to the agents, resuspended in inhibitor-free plasma; assay type: cell-based, human; conditions: for activity at 25 µM: preincubated 25 μM agent
# Procedure: as §1
# We believe that the inhibition mechanism of AP4 A analogues involves competing with ADP for binding to the platelet purinoceptor. To test the stability and inhibitory effects of the bound agent, platelet-rich plasma anticoagulated with ACD solution was preincubated with 25 μM thio-CHCl-AP4 A or 50 μM CHCl-AP4 A at 22° C. for 30 minutes. Platelets isolated by gel-column filtration (2×10^8 cells/ml) or centrifugation (3×10^8cells/ml) were resuspended in the inhibitor-free plasma and ADP-induced aggregability was measured. The values represent a mean of three experiments for the series of gel-filtration separation and a mean of two experiments for the centrifugation separation.
smiles,measurement,setting,value
Nc1ncnc2c1ncn2[C@@H]1O[C@H](COP(=O)(O)OP(=O)(O)C(Cl)P(=O)(O)OP(=O)(O)OC[C@H]2O[C@@H](n3cnc4c(N)ncnc43)[C@H](O)[C@@H]2O)[C@@H](O)[C@H]1O (some centres unmarked) [CHCl-AP4 A],Main Peak,[1]; 0 min,249.2 nmol/ml blood
same,Total,[1]; 0 min,249.2 nmol/ml blood
same,X1 (second peak),[1]; 0 min,trace
same,Main Peak,[1]; 60 min,249.0 nmol/ml blood
same,Total,[1]; 60 min,274.8 nmol/ml blood
same,X1 (second peak),[1]; 60 min,25.8 nmol/ml blood
same,Main Peak,[1]; 120 min,222.0 nmol/ml blood
same,Total,[1]; 120 min,258.6 nmol/ml blood
same,X1 (second peak),[1]; 120 min,36.6 nmol/ml blood
same,Main Peak,[1]; 240 min,173.2 nmol/ml blood
same,Total,[1]; 240 min,236.3 nmol/ml blood
same,X1 (second peak),[1]; 240 min,63.3 nmol/ml blood
same,"recovery at 1 h, 250 µM","[1]; human, blood, 60 minutes, read-out: Total extraction efficiency",110%
same,"metabolised at 4 h, 250 µM","[1]; human, blood, after 4 hours incubation, read-out: reduction of major peak (slow degradation)",30%
same,degradation product associated with the second peak (X1),[1]; whole blood,At least 80%
same,IC50,[2],3280 nM
same,effect on ADP-induced Ca^++ mobilization,[3]; 6.7 μM CHCl-AP4 A,blocked completely
same,"Clotting Time (Stypven), ADP-stimulated PF3 activity",Platelet Factor 3 (PF3),43.1 s
same,Net Change of clotting time,Platelet Factor 3 (PF3),-2.7
same,activity at 10 µM,Platelet Factor 3 (PF3),39.1%
same,activity at 50 µM,"[4]; Homo sapiens, Platelet, 0.5 h, centrifugation, 20 μM ADP, preincubated 50 μM agent, 22° C., 30 min, mean of two, read-out: Aggregability (% of control)",92%
same,inhibition in the ability to aggregate following exposure to ADP,[4]; preincubated 50 μM CHCl-AP4 A,8%
"Nc1ncnc2c1ncn2[C@@H]1O[C@H](COP(O)(=S)OP(=O)(O)C(Cl)P(=O)(O)OP(O)(=S)OC[C@H]2O[C@@H](n3cnc4c(N)ncnc43)[C@H](O)[C@@H]2O)[C@@H](O)[C@H]1O (some centres unmarked) [Thio-CHCl-AP4 A, P^1, P^4 -dithio -P^2 -P^3 monochloromethylene 5', 5'"" diadenosine P^1, P^4 -tetraphosphate]",Main Peak,[1]; 0 min,157.7 nmol/ml blood
same,Total,[1]; 0 min,172.0 nmol/ml blood
same,X2 (second peak),[1]; 0 min,14.3 nmol/ml blood
same,Main Peak,[1]; 60 min,172.3 nmol/ml blood
same,Total,[1]; 60 min,205.9 nmol/ml blood
same,X2 (second peak),[1]; 60 min,33.6 nmol/ml blood
same,Main Peak,[1]; 120 min,180.0 nmol/ml blood
same,Total,[1]; 120 min,211.4 nmol/ml blood
same,X2 (second peak),[1]; 120 min,31.4 nmol/ml blood
same,Main Peak,[1]; 240 min,173.7 nmol/ml blood
same,Total,[1]; 240 min,202.0 nmol/ml blood
same,X2 (second peak),[1]; 240 min,38.3 nmol/ml blood
same,"second peak (X2), % of the major peak",[1]; after time 0,about 20 % of the major peak
same,stability in blood,"[1]; at least 4 hours at 37° C., in words",very stable in blood for at least 4 hours at 37 °C
same,"recovery at 2 h, 250 µM","[1]; human, blood, 120 minutes, read-out: Total extraction efficiency",85%
same,"recovery at 1 h, 250 µM","[1]; human, blood, samples after 60 minutes, read-out: Extraction efficiency",81 to 85%
same,"recovery at 0 h, 250 µM","[1]; human, blood, time 0, read-out: Extraction efficiency",69%
same,second peak (X2) portion in the blood extraction,[1]; time 0,< 10%
same,IC50,[2],810 nM
same,in vitro platelet aggregation inhibitory activity relative to AP4 A and analogs,"[2]; compared to AP4 A, known analogs, non-thio counterpart, in words, listed as Aps pCHClpps A",nearly an order of magnitude greater than the inhibitory activity of naturally-occurring AP4 A; also recorded: significantly greater than the activities of known AP4 A analogs; also recorded: significantly greater platelet aggregation inhibitory activity than that of its corresponding non-thio counterpart
same,effect on ADP-induced Ca^++ mobilization,[3]; 3.3 μM thio-CHCl-AP4 A,blocked completely
same,"Clotting Time (Stypven), ADP-stimulated PF3 activity",Platelet Factor 3 (PF3),44.5 s
same,Net Change of clotting time,Platelet Factor 3 (PF3),-1.3
same,activity at 10 µM,Platelet Factor 3 (PF3),18.8%
same,inhibitory effect on ADP-stimulated PF3 activity,"Platelet Factor 3 (PF3); compared to CHCl-AP4 A, in words",significantly greater than that of the non-thio reference agent
same,activity at 25 µM,"[4]; Homo sapiens, Platelet, 0.5 h, centrifugation, 20 μM ADP, 22° C., 30 min, mean of two, read-out: Aggregability (% of control)",67%
same,activity at 25 µM,"[4]; Homo sapiens, Platelet, 0.5 h, gel-filtration, 10 μM ADP, 22° C., 30 min, mean of three, read-out: Aggregability (% of control)",78%
same,inhibition in the ability to aggregate following exposure to ADP,[4]; preincubated 25 μM thio-CHCl-AP4 A,22-33%
